{"source": "patent US20230131339A1", "about": "“EPI-X4 BASED PEPTIDES AND DERIVATIVES THEREOF” (Universitaet Ulm, priority 2020, published 2023)", "key": {"[1]": {"assay": "Functional stability assay in human plasma", "settings": "human plasma, 2 hours", "procedure,_shortened": "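EPI-X4 derivatives at 20 μM final in pooled human plasma or whole blood (EDTA), incubated at 37 °C with shaking for 2 or 8 h. Residual activity was measured by 12G5-APC antibody competition on CXCR4 and compared with a non-incubated t=0 sample. Blood samples were centrifuged to remove cells before the competition assay.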"}, "WM cells": {"test_system": "WM cells", "assay": "Migration of WM cells along a CXCL12 gradient", "assay_type": "cell-based", "settings": "with or without S338X mutation", "description": "(§1) Experimental data support the efficiency of the claimed peptide derivatives against the diseases mentioned above. At the example of JM #21 (SEQ ID NO.: 23) it could be shown that the peptides counteract growth and migration in vitro and in vivo of Acute Myeloid Leukemia (AML) cells as well as primary patient material and Waldenström's Macroglobulinemia (WM) cells harboring different WHIM-like CXCR4 mutations. This was accompanied by intrinsic changes suppressing oncogenic MAP kinase signaling of AML and WM cells."}, "CD34+ normal cells": {"test_system": "CD34+ normal cells", "assay": "Engraftment of CD34+ normal cells", "settings": "in vivo", "description": "as §1"}, "AML cells": {"test_system": "AML cells", "assay": "Migration of AML cells along a CXCL12 gradient", "assay_type": "cell-based", "description": "as §1"}}}
{"smiles": "CC[C@H](C)[C@H](N)C(=O)N[C@@H](CC(C)C)C(=O)N[C@@H](CCCNC(=N)N)C(=O)N[C@@H](Cc1c[nH]c2ccccc12)C(=O)N[C@@H](CO)C(=O)N[C@@H](CCCNC(=N)N)C(=O)N[C@@H](CCCCN)C(=O)N[C@@H](CC(C)C)C(=O)N1CCC[C@H]1C(=O)N[C@@H](CS)C(=O)N[C@H](C(=O)N[C@@H](CO)C(=O)O)C(C)C", "note": "[JM #21]", "values": [{"measurement": "remaining (relative) activity after 2 hours of plasma incubation", "setting": "[1]", "value": "completely inactive"}, {"measurement": "migration of WM cells along a CXCL12 gradient", "setting": "WM cells", "value": "impaired migration of WM cells with or without S338X mutation along a CXCL12 gradient"}, {"measurement": "engraftment potential of CD34+ normal cells", "setting": "CD34+ normal cells", "value": "no inhibiting effect on the engraftment potential of CD34+ normal cells"}, {"measurement": "migration of AML cells along a CXCL12 gradient", "setting": "AML cells", "value": "inhibited migration of AML cells along a CXCL12 gradient"}]}
